Data set [1] is described as follows: Stability of free base on storage. Type of data set: physicochemical. The conditions noted are these: room temperature. How it is done: To a solution of oxalyl chloride ([…], […]) in CH2Cl2 (3 mL) cooled to −78° C. was added dropwise 108 mg dimethylsulfoxide (1.38 mmol, 3 equiv). The mixture was stirred for 10 min and a solution of 236 mg racemic trans-3-hydroxy-4-[2-(diphenylmethoxy)ethyl]-1-[(4-fluorophenyl)methyl]piperidine (0.46 mmol) in CH2Cl2 (1 mL) was added dropwise. […] […]; H, 5.92; N, 2.76.

Data set [2] addresses T1, Norepinephrine (NET) Transporter (Rattus norvegicus, UniProt Q63380).
T1 construct: and norepinephrine Transporters in Rat Striatum; from tissue
Briefly: NET binding, [3H]nisoxetine. The conditions noted are these: read-out: NET, IC50, nM [3H]nisoxetine.

In data set [3] the target is rat DAT (Rattus norvegicus, UniProt P23977). Briefly: Rat DAT binding, [3H]Win 35,428, striatal membranes.
Procedure: (§2) Briefly, rat striatal membranes were incubated with radioligand and inhibitor for 2 h on ice in a sodium phosphate buffer at a final Na^+ concentration of 30 nM, pH 7.4, at room temperature. The assays were terminated by filtration through glass fiber filtermats (Wallac, Inc., Gaithersburg, Md.), presoaked in 0.05% (v/v) polyethyleneimine, with a MACH3-96 Tomtec harvester (Wallac, Inc.). Filters were assayed for radioactivity in a Microbeta Plus liquid scintillation counter (Wallac, Inc.).
Data set [4] deals with T2, rat SERT (Rattus norvegicus, UniProt P31652).
T2 construct: from tissue; host or cells: rat striatum (membranes)
Briefly: Rat SERT binding, [3H]citalopram, striatal membranes.
Procedure: as §2

Data set [5] addresses T3, DAT (Rattus norvegicus, UniProt P23977).
T3 construct: from tissue; host or cells: rat striatum
Briefly: Uptake of [3H]DA by DAT, rat striatum. The following applies: [3H]DA uptake, rat striatum; read-out: Ki (DAT), inhibition of DA uptake. It counts as biochemical. An excerpt: (§1) Transporter assays. The affinity of test compounds in binding to rat DAT and in inhibiting monoamine uptake was monitored as described by us previously. […] Rat cerebral cortex was used for assessing uptake of [^3H]serotonin by SERT and hippocampus for uptake of [^3H]NE by NET. […] At lease five triplicate concentrations of each test compound were studied, spaced evenly around the IC50 value. The latter was estimated by nonlinear computer curve-fitting procedures and converted to Ki with the Cheng-Prusoff equation.

Data set [6] concerns the target T4, NET (Rattus norvegicus, UniProt Q63380).
T4 construct: from tissue; host or cells: rat hippocampus
Briefly: Uptake of [3H]NE by NET, rat hippocampus. The conditions noted are these: [3H]NE uptake, read-out: Ki (NET), inhibition of NE uptake. Type of data set: biochemical.
Excerpt: as §1

The target of data set [7] is T5, dopamine transporter (DAT) (Rattus norvegicus, UniProt P23977). The conditions noted are these: Table 4, uptake/binding ratio.
Data set [8] deals with T5, dopamine transporter (DAT). Briefly: biochemical.

We go through 4 compounds from patent US8211916B2, “N- and O-substituted 4-[2-(diphenylmethoxy)-ethyl]-1-[(phenyl)methyl]piperidine analogs and methods of treating CNS disorders therewith” (Wayne State University, priority 2000, dated 2012).

Read-outs that look alike come from different tables or passages of the source.

For orientation: IC50 means the point on the concentration scale where inhibition reaches its midpoint. By Ki is commonly meant a measure of affinity in units of concentration, obtained from inhibition or displacement.

Sequence of rat DAT (P23977 whole entry): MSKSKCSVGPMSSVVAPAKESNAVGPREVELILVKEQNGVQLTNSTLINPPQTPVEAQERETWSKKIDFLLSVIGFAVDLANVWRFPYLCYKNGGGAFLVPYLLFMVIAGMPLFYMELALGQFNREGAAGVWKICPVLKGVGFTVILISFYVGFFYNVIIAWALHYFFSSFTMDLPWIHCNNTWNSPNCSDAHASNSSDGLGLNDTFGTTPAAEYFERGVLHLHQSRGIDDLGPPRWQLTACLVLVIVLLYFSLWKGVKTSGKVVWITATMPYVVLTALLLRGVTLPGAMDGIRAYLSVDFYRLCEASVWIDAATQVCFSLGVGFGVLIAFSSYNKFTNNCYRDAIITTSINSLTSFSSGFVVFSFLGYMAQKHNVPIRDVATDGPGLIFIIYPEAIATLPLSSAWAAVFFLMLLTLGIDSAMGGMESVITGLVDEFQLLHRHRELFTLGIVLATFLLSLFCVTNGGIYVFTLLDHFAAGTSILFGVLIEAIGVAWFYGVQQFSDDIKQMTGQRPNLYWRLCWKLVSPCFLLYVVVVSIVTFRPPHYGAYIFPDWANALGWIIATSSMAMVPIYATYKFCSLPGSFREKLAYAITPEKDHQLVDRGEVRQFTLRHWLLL
T5 sequence (P23977 whole entry): as above
T3 sequence (P23977 whole entry): as above
T4 sequence (Q63380 1-617): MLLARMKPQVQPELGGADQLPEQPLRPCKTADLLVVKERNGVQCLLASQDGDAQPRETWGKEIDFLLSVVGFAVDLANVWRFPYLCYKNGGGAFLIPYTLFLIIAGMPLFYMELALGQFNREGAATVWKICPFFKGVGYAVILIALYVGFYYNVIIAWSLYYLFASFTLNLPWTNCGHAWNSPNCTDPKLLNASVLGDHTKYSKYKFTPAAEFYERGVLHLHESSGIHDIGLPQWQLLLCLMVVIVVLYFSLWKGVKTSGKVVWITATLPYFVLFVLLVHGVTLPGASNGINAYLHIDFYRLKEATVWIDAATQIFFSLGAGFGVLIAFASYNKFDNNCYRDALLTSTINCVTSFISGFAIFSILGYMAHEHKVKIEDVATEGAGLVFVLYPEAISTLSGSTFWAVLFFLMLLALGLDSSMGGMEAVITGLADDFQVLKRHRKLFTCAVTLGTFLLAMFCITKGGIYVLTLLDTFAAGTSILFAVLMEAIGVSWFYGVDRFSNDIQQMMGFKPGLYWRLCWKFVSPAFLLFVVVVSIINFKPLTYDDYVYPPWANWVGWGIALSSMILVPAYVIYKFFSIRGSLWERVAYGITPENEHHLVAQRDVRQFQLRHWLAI
T1 sequence (Q63380 1-617): as above
T2 sequence (P31652 whole entry): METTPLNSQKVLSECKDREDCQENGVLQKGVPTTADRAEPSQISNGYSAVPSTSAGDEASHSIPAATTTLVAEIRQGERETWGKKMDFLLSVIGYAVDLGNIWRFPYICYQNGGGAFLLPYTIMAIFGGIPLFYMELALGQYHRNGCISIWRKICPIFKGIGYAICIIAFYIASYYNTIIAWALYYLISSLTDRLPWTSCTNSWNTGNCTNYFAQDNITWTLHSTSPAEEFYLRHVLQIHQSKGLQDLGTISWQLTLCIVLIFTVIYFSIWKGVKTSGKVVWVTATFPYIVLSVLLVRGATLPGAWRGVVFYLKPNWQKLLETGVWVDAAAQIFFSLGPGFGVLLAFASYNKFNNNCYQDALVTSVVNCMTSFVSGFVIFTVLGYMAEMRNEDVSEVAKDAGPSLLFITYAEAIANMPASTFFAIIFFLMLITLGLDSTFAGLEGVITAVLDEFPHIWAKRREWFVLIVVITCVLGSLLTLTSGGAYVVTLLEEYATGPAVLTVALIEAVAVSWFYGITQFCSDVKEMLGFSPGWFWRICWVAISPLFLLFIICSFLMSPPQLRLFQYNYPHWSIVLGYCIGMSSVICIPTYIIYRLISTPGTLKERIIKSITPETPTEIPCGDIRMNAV

Consider `O=C1CN(Cc2ccc(F)cc2)CCC1CCOC(c1ccccc1)c1ccccc1` (racemic) [Example 18, racemic 3-Keto-4-[2-(diphenylmethoxy)ethyl]-1-[(4-fluorophenyl)methyl]piperidine], for which the “stability of the free base” value in data set [1] is “decomposes at room temperature”. Further, the IC50 amounted to 6300 nM in data set [2] (Table 5, rat striatum); 99 ± 18 nM in data set [3]; 7750 nM in data set [4].

With `O[C@H](CN[C@H]1CC[C@@H](C(c2ccccc2)c2ccccc2)NC1)c1ccc(F)cc1` [Example 4b, (S)-2-[(3S,6S)-6-benzhydrylpiperidin-3-ylamino)-1-(4-fluorophenyl)ethanol], the Ki in data set [5] stood at 152 nM; in data set [6], 306 nM.

As for `Fc1ccc(CN[C@H]2CC[C@H](C(c3ccccc3)c3ccccc3)NC2)cc1` (racemic) [(±)-7b, trans-2-diphenylmethyl-5-(4-fluorobenzylamino)piperidine], the IC50 was found to be 4470 nM in data set [2] (Table 3), 212 ± 20 nM in data set [3], 1330 nM in data set [4] and 106 ± 10 nM in data set [8]. In addition, in data set [3], the SERT/DAT selectivity ratio stood at 6.28. The NET/DAT in data set [3] (Table 4, binding selectivity) worked out at 21. In data set [3] (Table 4, binding selectivity), this compound registered an SERT/DAT of 6.28. For the same compound, in data set [7], the “[3H]DA/DAT Binding” value was found to be 0.5.

Take `O[C@@H](CN[C@H]1CC[C@@H](C(c2ccccc2)c2ccccc2)NC1)c1ccc(F)cc1` [Example 4a, (R)-2-[(3S,6S)-6-benzhydrylpiperidin-3-ylamino)-1-(4-fluorophenyl)ethanol]: the Ki in data set [5] is 236 nM; in data set [6] it was 1440 nM.
